What was measured:
Settings in all cases: amount of applied herbicide 320 g/ha
rice flat sedge = assay: Test Example 3: herbicidal effect by foliage application, Wagner pot (Table 18, symbol E); type: in vivo, rice flat sedge (Cyperus iria)
Method in brief: (§1)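 Plants were sown in alluvial soil held under 0.1–0.5 cm standing water and grown 14 days in a greenhouse at 25–30 °C. An emulsifiable formulation, water-diluted to the set dose, was then sprayed onto the foliage, and effects were scored three weeks later using previously defined criteria.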

blackgrass = assay: Test Example 4: herbicidal effect by soil treatment (Table 19, symbol J); type: in vivo, blackgrass (Alopecurus myosuroides)
Method in brief: (§2)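 Three weeks of greenhouse growth at 25° C. to 30° C. followed a uniform surface spray of water-diluted emulsion at a predetermined herbicide amount. Seeds had been sown beforehand under about 1.5 cm of sterilized diluvial soil. Grading followed criteria set out in an earlier test.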

southern crabgrass = assay: Test Example 4: herbicidal effect by soil treatment (Table 19, symbol F); type: in vivo, southern crabgrass (Digitaria ciliaris)
Method in brief: as §2

barnyard grass [1] = assay: Test Example 3: herbicidal effect by foliage application, Wagner pot (Table 18, symbol H); type: in vivo, barnyard grass (Echinochloa crus-galli)
Method in brief: as §1

persian speedwell = assay: Test Example 4: herbicidal effect by soil treatment (Table 19, symbol R); type: in vivo, Persian speedwell (Veronica persica)
Method in brief: as §2

velvetleaf = assay: Test Example 4: herbicidal effect by soil treatment (Table 19, symbol M); type: in vivo, velvetleaf (Abutilon theophrasti)
Method in brief: as §2

Italian ryegrass = assay: Test Example 4: herbicidal effect by soil treatment (Table 19, symbol K); type: in vivo, Italian ryegrass (Lolium multiflorum)
Method in brief: as §2

redroot pigweed = assay: Test Example 4: herbicidal effect by soil treatment (Table 19, symbol N); type: in vivo, redroot pigweed (Amaranthus retroflexus)
Method in brief: as §2

lambsquarters = assay: Test Example 4: herbicidal effect by soil treatment (Table 19, symbol O); type: in vivo, lambsquarters (Chenopodium album)
Method in brief: as §2

windgrass = assay: Test Example 4: herbicidal effect by soil treatment (Table 19, symbol L); type: in vivo, windgrass (Apera spica-venti)
Method in brief: as §2

chickweed = assay: Test Example 4: herbicidal effect by soil treatment (Table 19, symbol P); type: in vivo, common chickweed (Stellaria media)
Method in brief: as §2

wild oat = assay: Test Example 4: herbicidal effect by soil treatment (Table 19, symbol I); type: in vivo, wild oat (Avena fatua)
Method in brief: as §2

Chinese sprangletop = assay: Test Example 3: herbicidal effect by foliage application, Wagner pot (Table 18, symbol D); type: in vivo, chinese sprangletop (Leptochloa chinensis)
Method in brief: as §1

barnyard grass [2] = assay: Test Example 4: herbicidal effect by soil treatment (Table 19, symbol H); type: in vivo, barnyard grass (Echinochloa crus-galli)
Method in brief: as §2

green foxtail = assay: Test Example 4: herbicidal effect by soil treatment (Table 19, symbol G); type: in vivo, green foxtail (Setaria viridis)
Method in brief: as §2

| Structure (SMILES) | herbicidal effect on E: rice flat sedge (rice flat sedge) | herbicidal effect, J: blackgrass (blackgrass) | herbicidal effect, F: southern crabgrass (southern crabgrass) | herbicidal effect on H: barnyard grass (barnyard grass [1]) | herbicidal effect, R: persian speedwell (persian speedwell) | herbicidal effect, M: velvetleaf (velvetleaf) | herbicidal effect, K: Italian ryegrass (Italian ryegrass) | herbicidal effect, N: redroot pigweed (redroot pigweed) | herbicidal effect, O: lambsquarters (lambsquarters) | herbicidal effect, L: windgrass (windgrass) | herbicidal effect, P: chickweed (chickweed) | herbicidal effect, I: wild oat (wild oat) | herbicidal effect on D: Chinese sprangletop (Chinese sprangletop) | herbicidal effect, H: barnyard grass (barnyard grass [2]) | herbicidal effect, G: green foxtail (green foxtail) |
| --- | --- | --- | --- | --- | --- | --- | --- | --- | --- | --- | --- | --- | --- | --- | --- |
| Cc1nn(C)c(=O)c(-c2c(-c3ccc(C(F)(F)F)cc3F)sc3ccc(F)cc23)c1O [2-354] | 5 (Herbicidal rate of 90% or more (almost completely withered)) | 0 (Herbicidal rate of 5% or less (almost no effect)) | 0 (Herbicidal rate of 5% or less (almost no effect)) | 5 (Herbicidal rate of 90% or more (almost completely withered)) | 4 (Herbicidal rate of 70% or more and less than 90%) | 0 (Herbicidal rate of 5% or less (almost no effect)) | 0 (Herbicidal rate of 5% or less (almost no effect)) | 3 (Herbicidal rate of 40% or more and less than 70%) | 3 (Herbicidal rate of 40% or more and less than 70%) | 0 (Herbicidal rate of 5% or less (almost no effect)) | 1 (Herbicidal rate of 5% or more and less than 20%) | 0 (Herbicidal rate of 5% or less (almost no effect)) | 5 (Herbicidal rate of 90% or more (almost completely withered)) | 0 (Herbicidal rate of 5% or less (almost no effect)) | 1 (Herbicidal rate of 5% or more and less than 20%) |
| COc1cccc(-c2sc3ccc(F)cc3c2-c2c(O)c(C)nn(C)c2=O)c1F [2-362] | 3 (Herbicidal rate of 40% or more and less than 70%) | 0 (Herbicidal rate of 5% or less (almost no effect)) | 0 (Herbicidal rate of 5% or less (almost no effect)) | 3 (Herbicidal rate of 40% or more and less than 70%) | 0 (Herbicidal rate of 5% or less (almost no effect)) | 0 (Herbicidal rate of 5% or less (almost no effect)) | 2 (Herbicidal rate of 20% or more and less than 40%) | 1 (Herbicidal rate of 5% or more and less than 20%) | 3 (Herbicidal rate of 40% or more and less than 70%) | 0 (Herbicidal rate of 5% or less (almost no effect)) | 0 (Herbicidal rate of 5% or less (almost no effect)) | 0 (Herbicidal rate of 5% or less (almost no effect)) | 0 (Herbicidal rate of 5% or less (almost no effect)) | 0 (Herbicidal rate of 5% or less (almost no effect)) | 0 (Herbicidal rate of 5% or less (almost no effect)) |
| COc1ccc(-c2sc3ccc(F)cc3c2-c2c(O)c(C)nn(C)c2=O)c(F)c1 [2-364] | 5 (Herbicidal rate of 90% or more (almost completely withered)) | 0 (Herbicidal rate of 5% or less (almost no effect)) | 0 (Herbicidal rate of 5% or less (almost no effect)) | 4 (Herbicidal rate of 70% or more and less than 90%) | 0 (Herbicidal rate of 5% or less (almost no effect)) | 0 (Herbicidal rate of 5% or less (almost no effect)) | 0 (Herbicidal rate of 5% or less (almost no effect)) | 1 (Herbicidal rate of 5% or more and less than 20%) | 4 (Herbicidal rate of 70% or more and less than 90%) | 0 (Herbicidal rate of 5% or less (almost no effect)) | 0 (Herbicidal rate of 5% or less (almost no effect)) | 0 (Herbicidal rate of 5% or less (almost no effect)) | 4 (Herbicidal rate of 70% or more and less than 90%) | 0 (Herbicidal rate of 5% or less (almost no effect)) | 0 (Herbicidal rate of 5% or less (almost no effect)) |
| CCCC(=O)Oc1c(C)nn(C)c(=O)c1-c1c(-c2ccc(OC)cc2F)sc2ccc(F)cc12 [2-365] | 5 (Herbicidal rate of 90% or more (almost completely withered)) | 0 (Herbicidal rate of 5% or less (almost no effect)) | 0 (Herbicidal rate of 5% or less (almost no effect)) | 4 (Herbicidal rate of 70% or more and less than 90%) | 0 (Herbicidal rate of 5% or less (almost no effect)) | 0 (Herbicidal rate of 5% or less (almost no effect)) | 0 (Herbicidal rate of 5% or less (almost no effect)) | 3 (Herbicidal rate of 40% or more and less than 70%) | 1 (Herbicidal rate of 5% or more and less than 20%) | 0 (Herbicidal rate of 5% or less (almost no effect)) | 0 (Herbicidal rate of 5% or less (almost no effect)) | 0 (Herbicidal rate of 5% or less (almost no effect)) | 5 (Herbicidal rate of 90% or more (almost completely withered)) | 0 (Herbicidal rate of 5% or less (almost no effect)) | 0 (Herbicidal rate of 5% or less (almost no effect)) |
| COc1ccc(F)c(-c2sc3ccc(F)cc3c2-c2c(O)c(C)nn(C)c2=O)c1 [2-366] | 3 (Herbicidal rate of 40% or more and less than 70%) | 2 (Herbicidal rate of 20% or more and less than 40%) | 3 (Herbicidal rate of 40% or more and less than 70%) | 3 (Herbicidal rate of 40% or more and less than 70%) | 3 (Herbicidal rate of 40% or more and less than 70%) | 0 (Herbicidal rate of 5% or less (almost no effect)) | 4 (Herbicidal rate of 70% or more and less than 90%) | 4 (Herbicidal rate of 70% or more and less than 90%) | 2 (Herbicidal rate of 20% or more and less than 40%) | 0 (Herbicidal rate of 5% or less (almost no effect)) | 3 (Herbicidal rate of 40% or more and less than 70%) | 0 (Herbicidal rate of 5% or less (almost no effect)) | 0 (Herbicidal rate of 5% or less (almost no effect)) | 0 (Herbicidal rate of 5% or less (almost no effect)) | 0 (Herbicidal rate of 5% or less (almost no effect)) |
| Cc1nn(C)c(=O)c(-c2c(-c3cnccc3F)sc3ccc(F)cc23)c1O [2-383] | 5 (Herbicidal rate of 90% or more (almost completely withered)) | 4 (Herbicidal rate of 70% or more and less than 90%) | 4 (Herbicidal rate of 70% or more and less than 90%) | 5 (Herbicidal rate of 90% or more (almost completely withered)) | 5 (Herbicidal rate of 90% or more (almost completely withered)) | 4 (Herbicidal rate of 70% or more and less than 90%) | 4 (Herbicidal rate of 70% or more and less than 90%) | 5 (Herbicidal rate of 90% or more (almost completely withered)) | 4 (Herbicidal rate of 70% or more and less than 90%) | 3 (Herbicidal rate of 40% or more and less than 70%) | 4 (Herbicidal rate of 70% or more and less than 90%) | 3 (Herbicidal rate of 40% or more and less than 70%) | 5 (Herbicidal rate of 90% or more (almost completely withered)) | 3 (Herbicidal rate of 40% or more and less than 70%) | 4 (Herbicidal rate of 70% or more and less than 90%) |

Reference: US20230085307A1, “PYRIDAZINONE COMPOUND AND HERBICIDE” (NISSAN CHEMICAL CORPORATION, priority 2019, published 2023)
